The values below come from publication PMC6017461, “Multi-Target Anti-Alzheimer Activities of Four Prenylated Compounds from Psoralea Fructus” (Molecules : A Journal of Synthetic Chemistry and Natural …, 2018).

SMILES strings stand for the structures.

This test deals with T1, amyloid β-peptide 42 (Aβ42) (Homo sapiens, UniProt P05067).
T1 construct: gene APP; synthetic human Aβ42
Put plainly: Thioflavin T fluorescence aggregation assay with synthetic Aβ[…], positive control. Type of test: biochemical.

T1 sequence (P05067 672-713 limits assumed): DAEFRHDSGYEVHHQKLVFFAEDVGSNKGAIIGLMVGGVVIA

In the case of `COc1cc(/C=C/C(=O)CC(=O)/C=C/c2ccc(O)c(OC)c2)ccc1O` [curcumin], the “Thioflavin T fluorescence aggregation assay with synthetic Aβ42, positive contro” value was “which were comparable to the positive control curcumin”.
